Measurements taken from patent US20090281191A1, “USE OF ORGANIC COMPOUNDS” (priority 2006, published 2009).

How the values were obtained:
[1] = biological target: T1, (His)6-hERRγ LBD (Homo sapiens, UniProt P62508); assay: FRET assay of agonist-induced activation of ERRγ with coactivator peptide PGC-1α; format: biochemical; details: for maximal increase in FRET signal: highest concentration tested / saturating concentrations
T1 sequence (P62508 233-457 limits assumed): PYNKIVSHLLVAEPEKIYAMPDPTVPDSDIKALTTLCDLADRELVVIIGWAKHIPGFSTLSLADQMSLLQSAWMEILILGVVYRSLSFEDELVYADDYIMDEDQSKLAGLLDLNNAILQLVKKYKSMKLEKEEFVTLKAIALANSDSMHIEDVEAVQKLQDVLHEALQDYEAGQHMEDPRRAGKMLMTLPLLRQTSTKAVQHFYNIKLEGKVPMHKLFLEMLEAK
Protocol: The FRET assay is designed to detect agonist-induced activation of ERRγ in the presence of the coactivator peptide PGC-1α. […] Mix 1 contained antibody, hERRγ LBD in buffer in a volume of 19 μL and was added to 30 μL of Mix 2 which contained Cy5-peptide in buffer (1. 6xHis-ERRγ-LBD, 3.6 mg/ml, MW 27 KDa; 2. Cy5-PGC-1 peptide from AnaSpec; 3. Other buffer components from Sigma; 4. EU-antiHis6-Ab from Perkin Elmer; and 5. Test compounds.). The assays were carried out in black 384-well plates and incubated at room temperature for 3 hrs before FRET signals were measured using a Wallac Victor 2 (Perkin Elmer) plate reader. The ratio of emission signals (665 nm/615 nm) was used to determine the FRET assay response. In some cases, the FRET signal to background ratio was used and this is simply defined as the FRET ratio in the presence of protein […] FRET ratio in the absence of protein. The test compounds were dissolved in DMSO at 10 mM and used as indicated.
The ability of agonist compounds to induce an increased FRET response between the Europium-labeled anti-(His)6 antibody/(His)6-hERRγ LBD complex and Cy5-[…] […] The compounds were solubilized in 10 mM DMSO and the concentration range of the titration was from 100 μM down to 2 nM. The final DMSO concentration was 2%. A DMSO control (no compound) at 2% was also prepared. All samples were made in duplicate.

[2] = tested on: primary mouse myotubes; assay: Gene expression by real time quantitative PCR in primary mouse myotubes; format: cell-based; details: 24 h
Protocol: (§1) Primary mouse myoblasts from FVB mice were isolated and maintained as described in Bare et al. For experimentation, mouse myoblasts were grown to 80% confluence in F-10/Ham's media containing 20% fetal bovine serum, 1% Penicillin/Streptomycin and 2.5 ng/mL bFGF (human recombinant). The cells were then plated to 700,000 cells per well in 6-well plates, and allowed to differentiate into myotubes for 36 to 48 hours in DMEM containing 5% equine serum and Penicillin/Streptomycin. […] Assays performed included analysis of gene expression by real time quantitative PCR (RT-PCR), cytochrome c ELISA, citrate synthase assay, fatty acid oxidation assay, and a respiration assay. […] Each dose was tested in trplicate, and a set of wells treated with an equivalent volume of DMSO used was included in every experimental readout for control purposes.
For the purpose of assessing gene expression by RT-PCR, RNA was isolated from cell lysates, and cDNA was subsequently synthesized from this RNA. For RNA isolation, cells were homogenized in TRIzol (Invitrogen, catalog number 15596-026, Carlsbad, Calif.), and total RNA was isolated following the manufacturer's instructions. RNA was quantified using the spectrophotometer.
Reverse transcription was performed using the BD Sprint™ PowerScriptT™ kit from BD Biosciences (catalog number 639562). Quantitative real time PCR for the following genes was performed using Assay-on-Demand primer probes from Applied Biosystems (See Post-text Table 8-1 for catalog numbers): B2M, ERRγ, ERRβ, ERRα, PGC-1α, PGC-1β, PPARα, PPARγ, PPARδ, COX-4, cytochrome c, UQCRB, CPT-1b, LCAD, MCAD, IDH3a, ATP-5b, UCP-2, and UCP-3.
Taqman real time quantitative PCR was performed and analyzed following the manufacturer's instructions (Applied Biosystems). Specifically, amplification was performed in triplicate, in a 10 μl reaction mixture. The reaction mixture included: 1× TaqMan® Universal PCR Master Mix (Applied Biosystems, catalog number 4304437), 1× of Assay-on-Demand primer probe, and 2 μl of cDNA sample. Gene expression was calculated by normalizing to total cDNA as measured by B2M endogenous control (Applied Biosystems, catalog number Mm00437762_m1). The samples were initially incubated for 2 min at 50° C. for optimum uracyl-N-glycosylase activity. The PCR program started with a 95° C. denaturing for 10 min, followed by 40 cycles of 95° C./15 sec and 60° C./1 min in a 384-well thermal cycler (Perkin-Elmer Applied Biosystems). Each amplification run contained “No Template” controls (buffer and primers only). Amplification data were collected by the 7700 Sequence Detector and analyzed using the Sequence Detection System software developed by Perkin-Elmer (Applied Biosystems). The fractional cycle number reflecting a positive PCR result is called the cycle threshold (Ct).
Average gene expression values were calculated for each group relative to B2M, using 2^−ΔΔCt (as described by Applied Biosystems, Foster City, Calif.) with the expression in the vehicle treated cells (0 μM) normalized to a value of 1. The data are expressed as mean±SEM (n=3 replicate wells). Statistical significance was measured using Student's t test.

[3] = tested on: primary mouse myotubes; assay: Cytochrome c ELISA in primary mouse myotubes; format: cell-based; details: 30 μM, 24 hours, vs vehicle
Protocol: as §1
The cytochrome c enzyme-linked immunosorbent assay (ELISA) was performed using the RatMouse Cytochrome c Immunoassay kit from R&D Systems (catalog number MCTC0, R&D Systems, Minneapolis, Minn.) following the manufacturer's instructions.

[4] = tested on: primary mouse myotubes; assay: Citrate synthase assay in primary mouse myotubes; format: cell-based; details: 24 hours
Protocol: as §1
The citrate synthase assay was performed following the procedure described in above in this application.

[5] = tested on: primary mouse myotubes; assay: Respiration assay (oxygen consumption, Clark electrode) in primary mouse myotubes; format: cell-based; details: 30 μM, 24 hr
Protocol: as §1
Cells were washed once with phosphate-buffered saline (PBS) and treated for 5 min at 37° C. with 2 ml of trypsin (Mediatech, catalog number 25-052-CI). Without removing trypsin, 10 ml of DMEM plus 10% FBS was added into each well. The cells were transferred to a 15 ml tube and centrifuged for 5 min at 1000 rpm. The cells were washed once with the medium and pelleted before being resuspended in the assay buffer containing 25 mM glucose (Sigma, catalog number G-5400), 1 mM pyruvate (Invitrogen, catalog number 11360-070) and 2% bovine serum albumin (BSA) (MP Biomedicals, catalog number 103703) in D-PBS (Invitrogen, catalog number 14040-133). The cell suspension was diluted to 1×10^6 cells per ml in the assay buffer and kept at 37° C. until used. Oxygen consumption was measured with a Clark electrode according to the instructions provided by Hansatech (Norfolk, UK). One half of the cell suspension was used for each measurement. […] The rate of respiration was measured by calculating the slope of the flux of oxygen consumption using the software provided by the manufacturer.

[6] = biological target: T2, ERRγ (Homo sapiens, UniProt P62508); details: purportedly, Zuercher et al. 2005; cited from earlier work
T2 sequence (P62508 1-458): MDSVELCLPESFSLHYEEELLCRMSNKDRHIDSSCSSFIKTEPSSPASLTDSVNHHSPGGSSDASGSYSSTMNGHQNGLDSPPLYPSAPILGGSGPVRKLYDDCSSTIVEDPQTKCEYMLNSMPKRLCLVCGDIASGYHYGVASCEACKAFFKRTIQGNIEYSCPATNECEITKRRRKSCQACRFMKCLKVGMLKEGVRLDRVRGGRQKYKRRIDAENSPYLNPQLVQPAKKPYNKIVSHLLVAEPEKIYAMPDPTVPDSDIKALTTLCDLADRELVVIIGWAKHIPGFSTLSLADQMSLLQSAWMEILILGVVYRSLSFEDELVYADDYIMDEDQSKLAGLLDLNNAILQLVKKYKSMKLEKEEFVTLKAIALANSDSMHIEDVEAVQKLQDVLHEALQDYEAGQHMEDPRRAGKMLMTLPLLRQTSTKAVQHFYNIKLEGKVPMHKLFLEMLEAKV

[7] = biological target: T3, ERRβ (Homo sapiens, UniProt O95718); details: purportedly, Zuercher et al. 2005; cited from earlier work
T3 sequence (O95718 1-433): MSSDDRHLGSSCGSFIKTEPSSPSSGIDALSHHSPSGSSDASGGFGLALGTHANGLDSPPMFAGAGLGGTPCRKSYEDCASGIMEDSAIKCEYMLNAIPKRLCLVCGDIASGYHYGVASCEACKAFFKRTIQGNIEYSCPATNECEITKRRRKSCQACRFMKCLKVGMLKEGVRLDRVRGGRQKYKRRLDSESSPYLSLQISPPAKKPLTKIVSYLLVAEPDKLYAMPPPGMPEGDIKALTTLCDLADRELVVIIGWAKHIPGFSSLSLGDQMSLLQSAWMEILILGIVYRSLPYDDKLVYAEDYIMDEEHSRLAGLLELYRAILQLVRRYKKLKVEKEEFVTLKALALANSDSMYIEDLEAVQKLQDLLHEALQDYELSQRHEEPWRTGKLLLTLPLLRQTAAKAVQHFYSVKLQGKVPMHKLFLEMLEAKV

[8] = biological target: T4, ERRα (Homo sapiens, UniProt P11474); details: Zuercher et al. 2005; cited from earlier work
T4 sequence (P11474 1-423): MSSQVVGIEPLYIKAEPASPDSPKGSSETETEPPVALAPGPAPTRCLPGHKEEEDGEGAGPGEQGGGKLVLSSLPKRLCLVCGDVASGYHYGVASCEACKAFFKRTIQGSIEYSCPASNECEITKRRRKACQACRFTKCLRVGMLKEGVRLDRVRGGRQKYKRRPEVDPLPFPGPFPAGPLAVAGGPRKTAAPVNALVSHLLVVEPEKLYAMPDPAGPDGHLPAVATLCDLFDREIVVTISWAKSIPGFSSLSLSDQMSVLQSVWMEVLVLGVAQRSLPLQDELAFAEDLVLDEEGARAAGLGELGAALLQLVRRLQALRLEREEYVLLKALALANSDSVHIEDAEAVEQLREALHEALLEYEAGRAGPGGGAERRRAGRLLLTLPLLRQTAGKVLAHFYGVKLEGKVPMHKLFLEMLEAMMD

[9] = tested on: ERs; details: Zuercher et al. 2005; cited from earlier work
[10] = 30 μM, relative to B2M, vehicle = 1

Structure (SMILES): CC(C)c1ccc(/C=N/NC(=O)c2ccc(O)cc2)cc1 [AJQ710, 4-hydroxy-N′-(4-isopropylphenylmethylidene)-benzohydrazide]
- maximal increase in FRET signal [1]: ≤ 60%
- UCP-2 highest expression ([2]; 10 μM, relative to B2M, vehicle = 1): 1.5 fold
- ATP-5b expression increase [2, 10]: 1.6 fold
- COX-4 expression increase [2, 10]: 2 fold
- CPT-1b expression increase [2, 10]: over 3 fold
- ERRα expression increase [2, 10]: 3.7 fold
- ERRβ expression increase [2, 10]: 1.5 fold
- ERRγ expression [2, 10]: 1.4 fold
- IDH3α expression increase [2, 10]: over 2 fold
- LCAD expression increase [2, 10]: 2.8 fold
- MCAD expression increase [2, 10]: 1.6 fold
- PGC-1α expression [2, 10]: 1.9 fold
- PPARγ maximal expression [2, 10]: 2.2 fold
- UCP-3 expression increase [2, 10]: over 3 fold
- UQCRB expression increase [2, 10]: 2 fold
- cytochrome c expression increase [2, 10]: 3.7 fold
- PPARα expression ([2]; 1-30 μM): no change in expression
- PPARδ expression ([2]; 1-30 μM): no change in expression
- PGC-1β expression ([2]; relative to B2M, vehicle = 1): 1.8 fold
- increase of cytochrome c protein [3]: 88%
- increase in citrate synthase activity ([4]; 3 μM): 9%
- increase in citrate synthase activity ([4]; 10 μM): 8%
- increase in citrate synthase activity ([4]; 30 μM): 28%
- increase in basal respiration ([5]; vs vehicle treated controls): 37%
- increase in respiration rate in the presence of FCCP ([5]; vs vehicle-treated control cells): 32%
- increase in oligomycin-insensitive respiration (proton leak) ([5]; not statistically significant): 36%
- activation of ERRγ [6]: activates
- activation of ERRβ (printed ERRP) [7]: activates
- activation of ERRα [8]: does not activate
- activation of the ERs [9]: does not activate

Structure (SMILES): CCN(CC)c1ccc(/C=N/NC(=O)c2ccc(O)cc2)cc1 [LCN446, N′-(4-(diethylamino)phenylmethylidene)-4-hydroxybenzohydrazide]
- maximal increase in FRET signal [1]: 70%
- EC50 ([1]; titration 100 μM down to 2 nM, 2% DMSO, duplicate, read-out: EC50 of FRET response): 0.54 µM
